The results in this text go back to patent US20150202212A1, “METHODS FOR IDENTIFYING AGENTS FOR TREATING SMOOTH MUSCLE DISORDERS AND COMPOSITIONS THEREOF” (University of Massachusetts Medical School, priority 2012, published 2015).

Entries after “also recorded” stand apart in the source; their conditions may differ. Where two headings read alike, the source gives them in different places.

Experiment [1] concerns isolated mouse airway smooth muscle cells. Briefly: Measurement of global [Ca2+]i (fluo-3) in freshly isolated mouse airway smooth muscle cells. Format: cell-based. Particulars: for effect on chloroquine-induced reversal of the KCl-induced increase in [Ca2+]i: PTX 1 μg/ml 6-8 hours, gallein 20 μM, Anti-βγ 1 μM, U73122, 2-ABP at concentrations of FIG. 5; for chloroquine-induced increase in global [Ca2+]i, % of control: resting cells, PTX 1 μg/ml 6-8 hr, gallein 20 μM 30 min, Anti-βγ 1 μM 1 hr, U73122 3 μM, 2-APB 50 μM; for effect on chloroquine's reduction of the Mch-induced [Ca2+]i increase: 10 μM FPL, single cell level. As for the experimental part: (§1) The tracheas and bronchi were dissected free from the surface of the connective tissue. The tissue was incubated in the dissociation medium containing papain 30 unit/ml, 1 mM DTT, and 0.5 mg/ml BSA, at 35° C. for 30 min, and then transferred to a dissociation medium containing 3 unit/ml collagenase F and 0.5 mg/mL BSA, and incubated at 35° C. for another 15 min to produce isolated ASM cells. Finally, the tissue was agitated with a fire polished wide-bore glass pipette to release the cells.
Fluorescence images using fluo-3 as a calcium indicator were obtained using a custom-built wide-field digital imaging system. The camera was interfaced to a custom made inverted microscope, and the cells were imaged using either a 20× Nikon 1.3 NA for global [Ca^2+] measurement or a 60× Nikon 1.4 NA oil for Ca^2+ spark measurement. […] The images were acquired at the speed of either 1 Hz for global [Ca^2+] measurement or 50 Hz for Ca^2+ spark measurement. Subsequent image processing and analysis was performed off line using a custom-designed software package, running on a Linux/PC workstation. [Ca^2+]i was represented as ΔF/F0*100 with F calculated by integrating fluo-3 over entire cells for global [Ca^2+], or just the value at the brightest pixel (i.e., epicenter pixel) for Ca^2+ sparks.
All chemicals, except fluo-3 (Invitrogen Co, San Diego, Calif., USA), gallein (Tocris Bioscience, Bristol, United Kingdom), and Anti-βγ blocking peptide (AnaSpec, Fremont, Calif., USA), were purchased from Sigma-Aldrich Co. (St. Louis, Mo., USA). For single cell studies, agonists and antagonists were applied locally to cells via a picospritzer at a constant pressure, so that the duration of its action and concentration could be controlled easily.

For another experiment, the system named is mouse urethra. Kind of experiment: Mouse urethral contraction induced by contractile agonists. Conditions: for relaxation of smooth muscle from urethra: mouse. An excerpt: […] were pretreated with bitter tastants, and then stimulated with contractile agonists. Contractile agonists alone were used as the control.
Experiment [2] concerns mouse airways (trachea and bronchi rings). Briefly: Mouse airway smooth muscle contraction bioassay (isometric tension). Particulars: for relaxation of smooth muscle from airways: mouse; for reversal (relaxation) of KCl-induced tension: 60 mM KCl, chloroquine, denatonium 1 mM. An excerpt: C57/BL6 mice at 7-12 weeks of age were sacrificed and the entire respiratory trees were rapidly removed and immersed in Krebs physiologic solution containing (in mM) 118.07 NaCl, 4.69 KCl, 2.52 CaCl2, 1.16 MgSO4, 1.01 NaH2PO4, 25 NaHCO3, and 11.10 glucose. Trachea and bronchi were isolated and cut into rings (4 mm in length). The rings were mounted on a wire myograph chamber (Danish Myo Technology, Aarhus, Denmark), and a PowerLab recording device (AD Instruments) was used to record isometric tension. The ring preparations with zero tension were immersed in 5 ml of Krebs physiologic solution, bubbled with 95% 02 and 5% CO2 at 37° C. The basal tones were set at the level of approximately 2 mN.

For experiment [3], the system named is human intrapulmonary bronchi. Kind of experiment: Force measurement in human intrapulmonary airways. Particulars: for relaxation of smooth muscle from airways: human; for reversal (relaxation) of KCl-induced tension: KCl (60 mM), chloroquine, denatonium 1 mM. The source says:
Trachea and bronchi were isolated and cut into rings (4 mm in length). The rings were mounted on a wire myograph chamber (Danish Myo Technology, Aarhus, Denmark), and a PowerLab recording device (AD Instruments) was used to record isometric tension. […] Human lung tissue was obtained (with informed consent) from patients undergoing surgery (lobectomy) for lung cancer at the Department of Surgery and the Department of Pathology at the Univ. of Massachusetts Memorial Med Ctr (Worcester, Mass.). The tumors were identified as nonsmall cell carcinoma (adenocarcinoma, squamous cell carcinoma). Intrapulmonary airways were dissected out and cleaned free of the connective tissues. These airways were either cut into the rings ([…]) for force measurements the same as for mouse airway tissues, or digested with the same enzymes, dissociation medium and isolation procedure as for single mouse ASM cells. The experimental protocols on human tissues were approved by the Committee for Protection of Human Subjects in Research at the University of Massachusetts Medical School (Protocol 13590 to R.Z).

Experiment [4] concerns isolated smooth muscle cells from mouse internal anal sphincter. Briefly: [Ca2+]i in isolated smooth muscle cells from mouse internal anal sphincter. Conditions: CDCA 100 μM; chloroquine 1 mM; denatonium 1 mM. Format: cell-based. The source says: Fluorescence images using fluo-3 as a calcium indicator were obtained using a custom-built wide-field digital imaging system. The camera was interfaced to a custom made inverted microscope, and the cells were imaged using either a 20× Nikon 1.3 NA for global [Ca^2+] measurement or a 60× Nikon 1.4 NA oil for Ca^2+ spark measurement. The 488 nm line of an Argon Ion laser provided fluorescence excitation, with a shutter to control exposure duration, and emission of the Ca^2+ indicator was monitored at wavelengths >500 nm. The images were acquired at the speed of either 1 Hz for global [Ca^2+] measurement or 50 Hz for Ca^2+ spark measurement. Subsequent image processing and analysis was performed off line using a custom-designed software package, running on a Linux/PC workstation. [Ca^2+]i was represented as ΔF/F0*100 with F calculated by integrating fluo-3 over entire cells for global [Ca^2+], or just the value at the brightest pixel (i.e., epicenter pixel) for Ca^2+ sparks.

Experiment [5] concerns mouse internal anal sphincter. Kind of experiment: Spontaneous tone of mouse internal anal sphincter. Conditions: for relaxation of smooth muscle from internal anal sphincter: mouse. An excerpt:
The spontaneous tone contributes about 70% of the basal tonus that maintains fecal continence in human and animals.

A further experiment concerns human pulmonary arteries. Kind of experiment: Relaxation of human pulmonary arteries pre-contracted by KCl. Conditions: for relaxation of smooth muscle from pulmonary artery: human; for relaxation of human pulmonary arteries: pre-contracted by KCl. An excerpt: Human specimen were provided by Univ. Mass. Memorial Medical Center.
The test system of experiment [6] is pulmonary artery from mouse. Kind of experiment: Relaxation of smooth muscle from mouse pulmonary artery.
The next experiment relates to Mouse ASM cells. Briefly: Measurement of cell shortening in mouse ASM cells. Format: cell-based. Conditions: Mch 100 μM; n=21. As for the experimental part:
as §1, with “the cells. Myocytes were placed into a recording chamber superfused with the bath solution for patch clamp experiments at room temperature. Cells loaded with Fluo-3 were imaged using a custom-built wide-field digital imaging system and their lengths were determined using custom software to manually trace down the center of the cell.” for “the cells.”

The next experiment has as its system mouse airway strips. Particulars: all at 1 mM; [Ca2+]i clamped; α-toxin permeabilized.
Where [7] appears, read: pretreatment, Chloro 1 mM, CDCA 100 μM.

Take `NCCOB(c1ccccc1)c1ccccc1` [2-APB, 2-Aminoethoxydiphenyl borate]: in experiment [1], the “effect on chloroquine-induced reversal of the KCl-induced increase in [Ca2+]i” value (shortened to “effect … of the KCl-induced increase in [Ca2+]i”) is “failed to alter” and the “chloroquine-induced increase in global [Ca2+]i, % of control” value was −10.5±7.3%.
On to `C[C@H](CCC(=O)O)[C@H]1CC[C@H]2[C@@H]3[C@H](O)C[C@@H]4C[C@H](O)CC[C@]4(C)[C@H]3CC[C@]12C` [CDCA, chenodeoxycholic acid], for which, in the experiment with mouse urethra, the “relaxation of smooth muscle from urethra” value is given as “fully relax”. In addition, in the experiment with mouse urethra (pretreatment, CDCA 100 μM), the “effect on 10 μM methacholine-induced contraction” value is recorded as “inhibited”. For the same compound, the “effect on 60 mM KCl-induced contraction” value with mouse urethra (setting [7]) is recorded as “blocked”. For the same compound, the “effect on alpha1-agonist phenylephrine-induced contraction” value in the experiment with mouse urethra (setting [7]) is “inhibited”. The “relaxation of smooth muscle from airways” value in [2] and in experiment [3] was “fully relax” each time. Further, the “effect on the increase in [Ca2+]i induced by 60 mM KCl” value in experiment [4] was “reversibly inhibited”. For the same compound, in experiment [5], the “effect on spontaneous tone” value is “reversed totally”. Besides, the “relaxation of smooth muscle from internal anal sphincter” value in experiment [5] was “fully relax”. In addition, the “relaxation of smooth muscle from pulmonary artery” value (in the experiment with human pulmonary arteries; in [6]) was “fully relax” throughout.
Take `C[C@H](CCC(=O)O)[C@H]1CC[C@H]2[C@@H]3CC[C@@H]4C[C@H](O)CC[C@]4(C)[C@H]3C[C@H](O)[C@]12C` [DCA, deoxycholic acid]: the “relaxation of smooth muscle from urethra” value in the experiment on mouse urethra is reported as “fully relax”. Also, the “relaxation of smooth muscle from airways” value in experiment [2] and in experiment [3] was “fully relax” in each case. In addition, in experiment [3] (human airways), the “reversal (relaxation) of KCl-induced tension” value (shortened to “reversal (relaxation)”) is on record as “fully relaxed”. Besides, in experiment [5], the “relaxation of smooth muscle from internal anal sphincter” value is “fully relax”. Besides, the “relaxation of smooth muscle from pulmonary artery” value (in the experiment with human pulmonary arteries; in [6]) was “fully relax” each time. The “relaxation of human pulmonary arteries” value in the experiment with human pulmonary arteries is on record as “markedly relaxed”.
With `COC(=O)c1c(C)[nH]c(C)c1C(=O)c1ccccc1Cc1ccccc1` [FPL, FPL 64176], the “effect on chloroquine-induced relaxation in ASM pre-contracted by KCl” value in experiment [2] (KCl 60 mM) is listed as “dose-dependently reversed; also recorded: dose-dependently inhibited”. In addition, in experiment [2] (tissue level), the “effect on chloroquine-induced relaxation of Mch precontracted airways” value is recorded as “prevent chloroquine from relaxing; also recorded: dose-dependently reversed”. Moreover, in experiment [1], the “effect on chloroquine's reduction of [Ca2+]i in cells stimulated by KCl” value is “prevented” and the “effect on chloroquine's reduction of the Mch-induced [Ca2+]i increase” value is reported as “prevent chloroquine from reducing”. In experiment [1] (listed as FPL 64176), the “effect on chloroquine's reduction of the Mch-induced [Ca2+]i increase” value was “prevented chloro from reversing” and the “effect on chloroquine's reduction of [Ca2+]i in cells stimulated by KCl” value is on record as “inhibited”.
`[Cl-].[K+]` [KCl]: the “KCl-induced increase in ΔF/F0” value in experiment [1] (KCl 60 mM, without diltiazem, n=9) came out at 122±19%.
As for `CC(=O)OC(C)C[N+](C)(C)C` (stereo not shown) [Mch, methacholine], the “contraction (tension) of mouse airways at rest” value in experiment [2] (1 mM chloro, 100 μM Mch) was “robust contraction”. Further, the “tension generated in Ca2+ free medium, % of that in the presence of extracellular Ca2+” value in experiment [2] (Ca2+ free medium) is “less than 20%”. The “contraction (force) of mouse airways at rest” value in [2] (chloroquine 10 μM-1 mM, Mch 0.1-10 μM) is “induced contraction markedly”. In the experiment with Mouse ASM cells, this compound had a cell shortening of 49±8%. Also, in experiment [1] (Mch 100 μM), the “increase in fluo-3 fluorescence (ΔF/F0)” value worked out at 162±26%.
For the compound `COc1ccc2c(c1)CC[C@@H]1[C@@H]2CC[C@]2(C)[C@@H](NCCCCCCN3C(=O)C=CC3=O)CC[C@@H]12` [U73122], in experiment [1], the “effect … of the KCl-induced increase in [Ca2+]i” value is listed as “failed to alter” and the “chloroquine-induced increase in global [Ca2+]i, % of control” value was 18.0±5.5%.
Consider `CC[N+](CC)(CC(=O)Nc1c(C)cccc1C)Cc1ccccc1` [denatonium], for which, in the experiment on mouse airway strips, the “relaxation of ASM at fixed [Ca2+]i” value was “failed to relax”. The “reversal (relaxation)” value in experiment [2] (mouse airways) was “fully reversed; also recorded: relaxed”; in experiment [3] (human airways), “fully reversed”. Besides, in experiment [4], the “effect on the increase in [Ca2+]i induced by 60 mM KCl” value is “did not affect”. Besides, in experiment [5], the “effect on spontaneous tone” value is listed as “enhanced”. In addition, the “relaxation of human pulmonary arteries” value with human pulmonary arteries was “failed to exert any effect”.
Regarding `COc1ccc([C@@H]2Sc3ccccc3N(CCN(C)C)C(=O)[C@@H]2OC(C)=O)cc1` [diltiazem], in [2] (KCl 60 mM, n=6), the “reversal of the KCl-induced contraction” value worked out at 93.1±4.8%. Moreover, the “reversal of Mch-induced airway force generation” value in experiment [2] (mouse airways) is “dose-dependently reversed”; in experiment [3] (human airways, 10 μM Mch) it was “dose-dependently reversed”. For the same compound, the “reversal (relaxation)” value in [2] (mouse airways) and in experiment [3] (human airways) was “relaxed” in each case. Moreover, in experiment [1] (10 μM diltiazem pretreatment, KCl 60 mM, n=9), the “KCl-induced increase in ΔF/F0 after diltiazem pretreatment” value worked out at 16.8±10%. In experiment [1] (prior application of diltiazem 100 μM), the “effect on KCl (60 mM)-induced increase in [Ca2+]i” value was “blocked”. Besides, in experiment [1] (single isolated mouse ASM cells, n=12), the “reversal of the Mch-induced increase in [Ca2+]” value is listed as 90.2±2.9%.
`O=C1OC2(c3ccccc31)c1ccc(O)c(O)c1Oc1c2ccc(O)c1O` [gallein]: in [1], the “effect … of the KCl-induced increase in [Ca2+]i” value is given as “prevented” and the “chloroquine-induced increase in global [Ca2+]i, % of control” value was 19.9±8.5%.
Consider “MPS-phosducin-like protein C terminus [Anti-βγ]”, for which, in experiment [1], the “effect … of the KCl-induced increase in [Ca2+]i” value is recorded as “prevented” and the “chloroquine-induced increase in global [Ca2+]i, % of control” value is recorded as 18.4±4.8%.
For pertussis toxin [PTX], in [1], the “effect … of the KCl-induced increase in [Ca2+]i” value is reported as “prevented” and the “chloroquine-induced increase in global [Ca2+]i, % of control” value was 21.1±8.6%.
